This passage reports IC50 and melting point results from publication PMC6804295, “Design, Synthesis, and Biological Evaluation of Novel Thienopyrimidine Derivatives as PI3Kα Inhibitors” (Molecules, 2019).

SMILES strings stand for the structures.

One data set concerns the target PI3Kα (Homo sapiens, UniProt P42336). Nature of the data set: PI3Kα Kinase-Glo Luminescent Kinase Assay. The conditions noted are these: 1 µM ATP, 60 min. It counts as biochemical. A general note: In Kinase-Glo more light means more ATP remaining.
A further data set addresses mTOR (Homo sapiens, UniProt P42345). Briefly: mTOR Kinase-Glo Luminescent Kinase Assay. In kind it is biochemical. The conditions noted are these: 10 µM ATP, 60 min.
For the next data set, the system named is A549 (human lung cancer). Briefly: MTT cytotoxicity assay, A549 cells. In kind it is cell-based. The following applies: 72 h, >50 = no inhibitory effect at 50 μM. How it is done:
(§1) The cancer cell lines were cultured in minimum essential medium (MEM) supplement with 10% fetal bovine serum (FBS). Approximately, 4 × 10 ^3 cells, suspended in MEM medium, were plated onto each well of a 96-well plate and incubated in 5% CO2 at 37 °C for 24 h. The test compounds at the indicated final concentrations were added to the culture medium, and cell cultures continued for 72 h. Fresh MTT was added to each well at a terminal concentration of 5 µg/mL and incubated with cells at 37 °C for 4 h. The formazan crystals were dissolved in 100 µL of DMSO in each well, and the absorbency at 492 nm (for absorbance of MTT formazan) and 630 nm (for the reference wavelength) was measured with an enzyme linked immunosorbent assay (ELISA) reader (MR-96A Mindray Elisa Microplate Reader, Guangzhou, China). All compounds were tested three times in each of the cell lines. The results expressed as inhibition rates or IC50 was the averages of […] and calculated using the Bacus Laboratories Inc. Slide Scanner (Bliss) software (the Bacus Laboratories Inc. Slide Scanner (BLISS) system, Lombard, IL, USA).
A general note: Tetrazolium assays rely on reduction of a dye to a coloured formazan, in cell work by metabolically active cells.

Data set [1] relates to PC-3 (human prostate cancer). Briefly: MTT cytotoxicity assay, PC-3 cells. In kind it is cell-based. The conditions noted are these: >50 = no inhibitory effect at 50 μM. As for the experimental part: as §1
The test system of data set [2] is MCF-7 (human breast cancer). Nature of the data set: MTT cytotoxicity assay, MCF-7 cells. In kind it is cell-based. The conditions noted are these: >50 = no inhibitory effect at 50 μM. As for the experimental part:
as §1

The next data set concerns HepG2 (human hepatoma). Nature of the data set: MTT cytotoxicity assay, HepG2 cells. The following applies: >50 = no inhibitory effect at 50 μM. It counts as cell-based. How it is done:
as §1

PI3Kα, sequence (P42336 whole entry): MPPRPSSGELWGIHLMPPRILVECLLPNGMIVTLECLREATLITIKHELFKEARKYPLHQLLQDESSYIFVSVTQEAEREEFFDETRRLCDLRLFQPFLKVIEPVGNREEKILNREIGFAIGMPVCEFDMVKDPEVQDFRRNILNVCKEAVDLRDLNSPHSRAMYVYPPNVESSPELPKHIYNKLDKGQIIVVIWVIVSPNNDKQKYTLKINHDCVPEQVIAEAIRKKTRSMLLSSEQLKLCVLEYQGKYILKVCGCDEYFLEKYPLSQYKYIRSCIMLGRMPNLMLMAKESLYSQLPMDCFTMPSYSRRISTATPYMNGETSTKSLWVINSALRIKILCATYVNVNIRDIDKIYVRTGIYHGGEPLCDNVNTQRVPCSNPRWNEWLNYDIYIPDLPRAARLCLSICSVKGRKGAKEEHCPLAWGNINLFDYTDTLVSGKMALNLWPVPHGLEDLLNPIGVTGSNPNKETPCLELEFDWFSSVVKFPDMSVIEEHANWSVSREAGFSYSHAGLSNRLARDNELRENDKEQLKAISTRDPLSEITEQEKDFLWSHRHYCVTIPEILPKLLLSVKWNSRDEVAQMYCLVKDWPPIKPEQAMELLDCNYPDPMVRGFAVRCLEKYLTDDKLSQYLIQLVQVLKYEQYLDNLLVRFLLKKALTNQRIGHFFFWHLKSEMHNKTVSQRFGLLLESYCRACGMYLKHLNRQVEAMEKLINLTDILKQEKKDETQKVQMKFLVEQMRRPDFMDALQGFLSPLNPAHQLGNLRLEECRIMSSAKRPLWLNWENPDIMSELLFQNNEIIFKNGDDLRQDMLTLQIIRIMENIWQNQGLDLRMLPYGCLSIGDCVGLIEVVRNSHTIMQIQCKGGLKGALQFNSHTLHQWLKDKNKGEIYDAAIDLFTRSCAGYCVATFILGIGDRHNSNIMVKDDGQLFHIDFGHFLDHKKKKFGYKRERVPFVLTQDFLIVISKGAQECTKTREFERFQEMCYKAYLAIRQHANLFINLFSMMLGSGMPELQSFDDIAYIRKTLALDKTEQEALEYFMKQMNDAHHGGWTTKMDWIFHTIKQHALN
PI3Kα, sequence (P27986 whole entry partner): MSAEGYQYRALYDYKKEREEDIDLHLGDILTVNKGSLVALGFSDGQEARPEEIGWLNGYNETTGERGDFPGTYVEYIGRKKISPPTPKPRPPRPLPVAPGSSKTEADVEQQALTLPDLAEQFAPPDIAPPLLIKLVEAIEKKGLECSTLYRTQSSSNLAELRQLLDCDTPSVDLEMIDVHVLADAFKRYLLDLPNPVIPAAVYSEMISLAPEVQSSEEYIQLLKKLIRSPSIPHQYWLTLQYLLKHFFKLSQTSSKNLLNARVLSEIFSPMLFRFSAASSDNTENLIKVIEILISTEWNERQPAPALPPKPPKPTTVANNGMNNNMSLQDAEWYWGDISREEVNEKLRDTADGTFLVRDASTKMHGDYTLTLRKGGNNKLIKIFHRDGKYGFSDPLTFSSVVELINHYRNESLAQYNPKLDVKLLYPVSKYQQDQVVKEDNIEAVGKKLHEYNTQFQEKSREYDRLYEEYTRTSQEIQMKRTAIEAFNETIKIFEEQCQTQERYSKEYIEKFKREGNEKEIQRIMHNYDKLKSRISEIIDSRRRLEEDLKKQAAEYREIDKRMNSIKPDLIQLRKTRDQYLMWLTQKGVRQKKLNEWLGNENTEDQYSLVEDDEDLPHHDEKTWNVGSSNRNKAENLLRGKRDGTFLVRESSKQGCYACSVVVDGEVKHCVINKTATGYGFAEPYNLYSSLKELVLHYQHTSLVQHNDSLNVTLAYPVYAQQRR

Compound `c1ccc(C2=NN(c3nc(N4CCOCC4)c4ccsc4n3)[C@@H](c3ccccc3)C2)cc1` (stereo in doubt) [Compound 9a] had a melting point of 202 to 205 °C. Further, at PI3Kα, the 50% inhibitory concentration (IC50) stood at 9.47 ± 0.63 µM. Besides, the 50% inhibitory concentration (IC50) against mTOR is 39.9 ± 7.6 µM. In the data set with A549 (human lung cancer), the IC50 came to 11.3 ± 1.19 µM. In data set [1] (72 h), this compound came in with an IC50 of 12.3 ± 0.96 µM. In data set [1] (Homo sapiens, PC-3, 72 h), this compound came in with an IC50 of 14.7 ± 1.32 µM. Moreover, the 50% inhibitory concentration (IC50) in data set [2] (72 h) came to 14.7 ± 1.32 µM. The compound also yielded a half-maximal inhibitory concentration (IC50) in data set [2] (Homo sapiens, MCF7, 72 h) of 9.8 ± 0.93 µM. Further, 9.8 ± 0.93 µM corresponded to half-maximal inhibition in the data set with HepG2 (human hepatoma) (72 h) (IC50). This compound registered an IC50 in the data set with HepG2 (human hepatoma) (Homo sapiens, HepG2, 72 h) of 12.3 ± 0.96 µM.

`c1ccc(C2=NN(c3nc(N4CCOCC4)c4sccc4n3)[C@@H](c3ccccc3)C2)cc1` (stereo in doubt) [Compound 15a] gave a melting point of 131.2 to 132.5 °C. This compound also returned an IC50 against PI3Kα of 25.7 ± 2.33 µM. On mTOR, this compound had a half-inhibitory concentration (IC50) above 50 µM. Also, in the data set with A549 (human lung cancer), the IC50 stood at 16.9 ± 1.61 µM. The midpoint of inhibition in data set [1] (Homo sapiens, PC-3, 72 h), the IC50, lay at 15.5 ± 1.21 µM. Also, the IC50 in data set [2] (Homo sapiens, MCF7, 72 h) is 17 ± 1.68 µM. Also, 13.1 ± 1.48 µM corresponded to half-maximal inhibition with HepG2 (human hepatoma) (Homo sapiens, HepG2, 72 h) (IC50).

In the case of `Fc1ccc(C2=NN(c3nc(N4CCOCC4)c4ccsc4n3)C(c3ccc(F)cc3)C2)cc1` (stereo not shown) [Compound 9c, 4-(2-(3,5-bis(4-fluorophenyl)-4,5-dihydro-1H-pyrazol-1-yl)thieno[2,3-d]pyrimidin-4-yl)Morpholine], the melting point is 225 to 227 °C. In the data set on A549 (human lung cancer), this compound gave a concentration for half-maximal inhibition (IC50) of 24.23 ± 0.15 µM. Moreover, the IC50 in data set [1] (Homo sapiens, PC-3, 72 h) turned out to be 18.2 ± 1.55 µM. The compound also registered a concentration for half-maximal inhibition (IC50) in data set [2] (Homo sapiens, MCF7, 72 h) of 22.37 ± 0.17 µM. Also, the IC50 with HepG2 (human hepatoma) (Homo sapiens, HepG2, 72 h) amounted to 17.4 ± 0.98 µM.

Regarding `Fc1ccc(C2=NN(c3nc(N4CCOCC4)c4sccc4n3)C(c3ccc(F)cc3)C2)cc1` (stereo not shown) [Compound 15c, 4-(2-(3,5-bis(4-fluorophenyl)-4,5-dihydro-1H-pyrazol-1-yl)thieno[3,2-d]pyrimidin-4-yl)Morpholine], the melting point was in the range of 254.7 to 255.4 °C. The half-inhibitory concentration (IC50) with A549 (human lung cancer) turned out to be 39 ± 3.32 µM. 25.3 ± 2.39 µM corresponded to half-maximal inhibition in data set [1] (Homo sapiens, PC-3, 72 h) (IC50). Besides, the concentration for half-maximal inhibition (IC50) in data set [2] (Homo sapiens, MCF7, 72 h) was found to be 37.1 ± 2.99 µM. Besides, the IC50 in the data set with HepG2 (human hepatoma) (Homo sapiens, HepG2, 72 h) came to 18.9 ± 1.86 µM.

On to `COc1ccc(C2CC(c3ccc(Cl)c(Cl)c3)=NN2c2nc(N3CCOCC3)c3c4c(sc3n2)CCCC4)cc1` (stereo not shown) [Compound 21a, 4-(2-(3-(3,4-dichlorophenyl)-5-(4-methoxyphenyl)-4,5-dihydro-1H-pyrazol-1-yl)-5,6,7,8-tetrahydrobenzo[4,5]thieno[2,3-d]pyrimidin-4-yl)morpholine], for which the melting point lay in the range of 252 to 253 °C. This compound also showed an IC50 in the data set on A549 (human lung cancer) of 27.68 ± 0.1 µM. The same compound registered an IC50 in data set [1] (Homo sapiens, PC-3, 72 h) of 31.8 ± 0.95 µM. In the data set with HepG2 (human hepatoma) (Homo sapiens, HepG2, 72 h), this compound yielded an IC50 of 32.4 ± 1.84 µM.

`Cc1ccc(C2CC(c3ccc(Br)cc3)=NN2c2nc(N3CCOCC3)c3c4c(sc3n2)CCCC4)cc1` (stereo not shown) [Compound 21b, 4-(2-(3-(4-bromophenyl)-5-(p-tolyl)-4,5-dihydro-1H-pyrazol-1-yl)-5,6,7,8-tetrahdrobenzo[4,5]thieno[2,3-d]pyrimidin-4-yl)morpholine] registered a melting point of 243 to 244 °C. This compound also gave an IC50 in the data set on A549 (human lung cancer) of 11.59 ± 0.11 µM. The compound also yielded an IC50 in data set [1] (Homo sapiens, PC-3, 72 h) of 20.6 ± 0.63 µM. Moreover, 15.3 ± 0.83 µM corresponded to half-maximal inhibition in data set [2] (Homo sapiens, MCF7, 72 h) (IC50). The compound further displayed a 50% inhibitory concentration (IC50) in the data set on HepG2 (human hepatoma) (Homo sapiens, HepG2, 72 h) of 12.4 ± 0.96 µM.

Take `c1ccc(C2=NN(c3nc(N4CCOCC4)c4c5c(sc4n3)CCCC5)C(c3ccccc3)C2)cc1` (stereo not shown) [Compound 21c, 4-(2-(3,5-diphenyl-4,5-dihydro-1H-pyrazol-1-yl)-5,6,7,8-tetrahydrobenzo[4,5]thiophene[2,3-d]pyramidin-4-yl)morpholine]: the melting point fell in the range of 212 to 213 °C. In the data set with A549 (human lung cancer), the IC50 was found to be 42 ± 1.49 µM. Besides, the IC50 in data set [1] (Homo sapiens, PC-3, 72 h) is above 50 µM. For the same compound, in data set [2] (Homo sapiens, MCF7, 72 h), the concentration for half-maximal inhibition (IC50) is above 50 µM. In the data set on HepG2 (human hepatoma) (Homo sapiens, HepG2, 72 h), this compound displayed an IC50 above 50 µM.

`COc1ccc(C2CC(c3ccc(F)cc3)=NN2c2nc(N3CCOCC3)c3c4c(sc3n2)CCCC4)cc1` (stereo not shown) [Compound 21d, 4-(2-(3-(4-fluorophenyl)-5-(4-methoxyphenyl)-4,5-dihydro-1H-pyrazol-1-yl)-5,6,7,8-tetrahydrobenzo[4,5]thieno[2,3-d]pyrimidin-4-yl)morpholine] returned a melting point of 189 to 193 °C. In the data set on A549 (human lung cancer), this compound displayed an IC50 of 17.8 ± 1.1 µM. This compound showed an IC50 in data set [1] (Homo sapiens, PC-3, 72 h) of 25.3 ± 0.75 µM. This compound also yielded a half-maximal inhibitory concentration (IC50) in data set [2] (Homo sapiens, MCF7, 72 h) of 29.5 ± 1.87 µM. The midpoint of inhibition with HepG2 (human hepatoma) (Homo sapiens, HepG2, 72 h), the IC50, lay at 23.7 ± 0.11 µM.

As for `Fc1ccc(C2CC(c3ccc(Br)cc3)=NN2c2nc(N3CCOCC3)c3c4c(sc3n2)CCCC4)cc1` (stereo not shown) [Compound 21e, 4-(2-(3-(4-bromophenyl)-5-(4-fluorophenyl)-4,5-dihydro-1H-pyrazol-1-yl)-5,6,7,8-tetrahydrobenzo[4,5]thieno[2,3-d]pyrimidin-4-yl)morpholine], the melting point was in the range of 272 to 273 °C. The compound also returned an IC50 with A549 (human lung cancer) above 50 µM. The IC50 in data set [1] (Homo sapiens, PC-3, 72 h) is above 50 µM. In data set [2] (Homo sapiens, MCF7, 72 h), the IC50 is above 50 µM. In the data set with HepG2 (human hepatoma) (Homo sapiens, HepG2, 72 h), the IC50 was 38.7 ± 1.72 µM.

`Brc1ccc(C2=NN(c3nc(N4CCOCC4)c4c5c(sc4n3)CCCC5)C(c3ccccc3)C2)cc1` (stereo not shown) [Compound 21f, 4-(2-(3-(4-bromophenyl)-5-phenyl-4,5-dihydro-1H-pyrazol-1-yl)-5,6,7,8-tetrahydrobenzo[4,5]thieno[2,3-d]pyrimidin-4-yl)morpholine]: the melting point lay in the range of 257 to 259 °C. Besides, the half-maximal inhibitory concentration (IC50) with A549 (human lung cancer) was above 50 µM. The same compound had an IC50 in data set [1] (Homo sapiens, PC-3, 72 h) above 50 µM. Besides, the 50% inhibitory concentration (IC50) in data set [2] (Homo sapiens, MCF7, 72 h) is above 50 µM. In the data set with HepG2 (human hepatoma) (Homo sapiens, HepG2, 72 h), this compound yielded an IC50 above 50 µM.

`Clc1ccc(C2=NN(c3nc(N4CCOCC4)c4c5c(sc4n3)CCCC5)C(c3ccc(Br)cc3)C2)cc1Cl` (stereo not shown) [Compound 21g, 4-(2-(5-(4-bromophenyl)-3-(3,4-dichlorophenyl)-4,5-dihydro-1H-pyrazol-1-yl)-5,6,7,8-tetrahydrobenzo[4,5]thieno[2,3-d]pyrimidin-4-yl)morpholine] displayed a melting point of 231 to 234 °C. In the data set on A549 (human lung cancer), this compound displayed a 50% inhibitory concentration (IC50) above 50 µM. Besides, the IC50 in data set [1] (Homo sapiens, PC-3, 72 h) was above 50 µM. The compound also had an IC50 in data set [2] (Homo sapiens, MCF7, 72 h) above 50 µM. Further, the 50% inhibitory concentration (IC50) in the data set with HepG2 (human hepatoma) (Homo sapiens, HepG2, 72 h) was above 50 µM.

The compound `Clc1ccc(C2=NN(c3nc(N4CCOCC4)c4c5c(sc4n3)CCCC5)C(c3ccccc3)C2)cc1Cl` (stereo not shown) [Compound 21h, 4-(2-(3-(3,4-dichlorophenyl)-5-phenyl-4,5-dihydro-1H-pyrazol-1-yl)-5,6,7,8-tetrahydrobenzo[4,5]thieno[2,3-d]pyrimidin-4-yl)morpholine] registered a melting point of 293 to 294 °C. In addition, half-maximal inhibition in the data set with A549 (human lung cancer) (IC50) was put at 23.5 ± 0.82 µM. The 50% inhibitory concentration (IC50) in data set [1] (Homo sapiens, PC-3, 72 h) is above 50 µM. This compound also had an IC50 in data set [2] (Homo sapiens, MCF7, 72 h) above 50 µM. This compound gave an IC50 in the data set with HepG2 (human hepatoma) (Homo sapiens, HepG2, 72 h) above 50 µM.

As to `CS(=O)(=O)N1CCN(Cc2cc3nc(-c4cccc5[nH]ncc45)nc(N4CCOCC4)c3s2)CC1` [GDC-0941, reference compound], the IC50 with A549 (human lung cancer) turned out to be 6.99 ± 0.21 µM; in data set [1] (Homo sapiens, PC-3, 72 h) it was 4.35 ± 0.33 µM; in data set [2] (Homo sapiens, MCF7, 72 h), 0.2 ± 0.08 µM; with HepG2 (human hepatoma) (Homo sapiens, HepG2, 72 h), 0.07 ± 0.03 µM.

As usually defined, the IC50 is the concentration at which inhibition is half-maximal. A higher IC50 goes with weaker potency in that assay. One may read the melting point as the temperature, or range, at which the solid turns liquid.
